This test deals with T1, human Cereblon WT GST-tagged protein (Homo sapiens, UniProt Q96SW2).
T1 construct: purchased CISBIO 64BDCRBNPEH
T1 sequence (Q96SW2 whole entry): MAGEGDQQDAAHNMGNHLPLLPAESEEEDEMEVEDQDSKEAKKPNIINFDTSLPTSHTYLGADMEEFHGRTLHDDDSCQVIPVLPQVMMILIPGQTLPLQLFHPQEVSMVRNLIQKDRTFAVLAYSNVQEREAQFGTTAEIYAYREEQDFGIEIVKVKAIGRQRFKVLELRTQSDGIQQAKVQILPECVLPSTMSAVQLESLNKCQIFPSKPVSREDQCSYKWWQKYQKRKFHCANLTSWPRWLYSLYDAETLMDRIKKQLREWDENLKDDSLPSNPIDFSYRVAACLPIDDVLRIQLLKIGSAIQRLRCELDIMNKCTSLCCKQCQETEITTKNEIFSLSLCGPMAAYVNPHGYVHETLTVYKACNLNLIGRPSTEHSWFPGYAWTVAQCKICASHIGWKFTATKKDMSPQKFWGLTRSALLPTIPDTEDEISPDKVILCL
Briefly: CRBN binding, HTRF CEREBLON BINDING kit. Conditions: CRBN binding, HTRF CEREBLON BINDING kit. Here is the method:
The CEREBLON BINDING kits (specification: 10,000 tests; product number: Catalog #64BDCRBNPEH; CISBIO company) was used to determine the CRBN binding ability of the compounds to be tested through a HTRF method (homogeneous time-resolved fluorescence). The specific methods are as follows: • 1. […] Then, 2.5 μL of human Cereblon WT GST-tagged protein solution was added to each well. Finally, 5 μL of the thoroughly mixed Thalidomide-Re reagent and GST Eu antibody working solution were added to each of the aforementioned wells. […] The blank control wells were sequentially added with 2.5 μL of diluent #9 (1×) solution, 2.5 μL of binding buffer, and 5 μL of thoroughly mixed Thalidomide-Re reagent and GST Eu antibody working solution. • 4. After sealing and incubating the solutions in the aforementioned wells at room temperature for 3 hours, the absorbance values at emission wavelengths of 620 nm and 665 nm were detected by the HTRF method using a Spark microplate reader (V3.1 SP1).
The corresponding CRBN binding inhibition rate was calculated using the following method:
[formula] [formula] [formula] • Note: OD 665 nmcompound is the absorbance value of each well of the compounds to be tested of the present disclosure at an emission wavelength of 665 nm. • OD 620 nmcompound is the absorbance value of each well of the compounds to be tested of the present disclosure at an emission wavelength of 620 nm. • OD 665 nmcontrol is the absorbance value of the blank control well at an emission wavelength of 665 nm. • OD 620 nmcontrol is the absorbance value of the blank control well at an emission wavelength of 620 nm. • OD 665 nmStd0 is the absorbance value of the solvent control well at an emission wavelength of 665 nm. • OD 620 nmStd0 is the absorbance value of the solvent control well at an emission wavelength of 620 nm.
(Time-resolved FRET reads energy transfer from a long-lived donor to a nearby acceptor.)
With `COc1cc2nn(C3CCN(Cc4cccc(NC5CCC(=O)NC5=O)c4)CC3)cc2cc1NC(=O)c1cccc(C(F)(F)F)n1` (stereo not shown) [GT-04763, N-(2-(1-(3-((2,6-dioxopiperidin-3-yl)amino)benzyl)piperidin-4-yl)-6-methoxy-2H-indazol-5-yl)-6-(trifluoromethyl)picolinamide], the half-maximal inhibitory concentration (IC50) (usually the concentration that gives 50% inhibition) fell in the range of 0.5 to 1 µM. Then `COc1cc2nn(C3CCN(Cc4cccc(N5CCC(=O)NC5=O)c4)CC3)cc2cc1NC(=O)c1cccc(C(F)(F)F)n1` [GT-04774, N-(2-(1-(3-(2,4-dioxotetrahydropyrimidin-1(2H)-yl)benzyl)piperidin-4-yl)-6-methoxy-2H-indazol-5-yl)-6-(trifluoromethyl)picolinamide], with 1 to 1.9 µM. Compound `COc1cc2nn(C3CCN(Cc4ccc(N5CCC(=O)NC5=O)c(F)c4)CC3)cc2cc1NC(=O)c1cccc(C(F)(F)F)n1` [GT-04775, N-(2-(1-(4-(2,4-dioxotetrahydropyrimidin-1(2H)-yl)-3-fluorobenzyl)piperidin-4-yl)-6-methoxy-2H-indazol-5-yl)-6-(trifluoromethyl)picolinamide] came in with a half-maximal inhibitory concentration (IC50) of 1 to 1.9 µM. In the case of `COc1cc2nn(C3CCN(Cc4ccc(N5CCC(=O)NC5=O)cc4F)CC3)cc2cc1NC(=O)c1cccc(C(F)(F)F)n1` [GT-04777, N-(2-(1-(4-(2,4-dioxotetrahydropyrimidin-1(2H)-yl)-2-fluorobenzyl)piperidin-4-yl)-6-methoxy-2H-indazol-5-yl)-6-(trifluoromethyl)picolinamide], the half-maximal inhibitory concentration (IC50) was 1 to 1.9 µM.

`NC(=O)c1ncc(N2CCCCC2)nc1Nc1ccc(C2CCN(Cc3ccc(C4CCC(=O)NC4=O)cc3)CC2)cc1` (stereo not shown) [GT-04785, 3-((4-(1-(4-(2,6-dioxopiperidin-3-yl)benzyl)piperidin-4-yl)phenyl)amino)-5-(piperidin-1-yl)pyrazine-2-carboxamide] displayed an IC50 of 0.5 to 1 µM. As for `NC(=O)c1ncc(N2CCCCC2)nc1Nc1ccc(C2CCN(Cc3ccc(C4CCC(=O)NC4=O)c(F)c3)CC2)cc1` (stereo not shown) [GT-04786, 3-((4-(1-(4-(2,6-dioxopiperidin-3-yl)-3-fluorobenzyl)piperidin-4-yl)phenyl)amino)-5-(piperidin-1-yl)pyrazine-2-carboxamide], the figure is below 0.5 µM; as for `NC(=O)c1ncc(N2CCCCC2)nc1Nc1ccc(C2CCN(Cc3cccc(N4CCC(=O)NC4=O)c3)CC2)cc1` [GT-04787, 3-((4-(1-(3-(2,4-dioxotetrahydropyrimidin-1(2H)-yl)benzyl)piperidin-4-yl)phenyl)amino)-5-(piperidin-1-yl)pyrazine-2-carboxamide], 0.5 to 1 µM; as for `NC(=O)c1ncc(N2CCCCC2)nc1Nc1ccc(C2CCN(Cc3cccc(NC4CCC(=O)NC4=O)c3)CC2)cc1` (stereo not shown) [GT-04791, 3-((4-(1-(3-((2,6-dioxopiperidin-3-yl)amino)benzyl)piperidin-4-yl)phenyl)amino)-5-(piperidin-1-yl)pyrazine-2-carboxamide], 0.5 to 1 µM. `CN1CCN([C@@H]2CCCN(c3cnc(C(N)=O)c(Nc4ccc(C5CCN(Cc6ccc(C7CCC(=O)NC7=O)cc6)CC5)cc4)n3)C2)C1=O` (stereo partly drawn) [GT-04798, 3-((4-(1-(4-(2,6-dioxopiperidin-3-yl)benzyl)piperidin-4-yl)phenyl)amino)-5-((R)-3-(3-methyl-2-oxoimidazolidin-1-yl)piperidin-1-yl)pyrazine-2-carboxamide] had an IC50 below 0.5 µM.

`CN1CCN([C@@H]2CCCN(c3cnc(C(N)=O)c(Nc4ccc(C5CCN(Cc6ccc(C7CCC(=O)NC7=O)c(F)c6)CC5)cc4)n3)C2)C1=O` (stereo partly drawn) [GT-04799, 3-((4-(1-(4-(2,6-dioxopiperidin-3-yl)-3-fluorobenzyl)piperidin-4-yl)phenyl)amino)-5-((R)-3-(3-methyl-2-oxoimidazolidin-1-yl)piperidin-1-yl)pyrazine-2-carboxamide] gave a concentration for half-maximal inhibition (IC50) below 0.5 µM.

For the origin of these results see patent US20260274829A1, “NEW E3 UBIQUITIN LIGASE LIGAND, PROTEIN DEGRADATION AGENT AND USE THEREOF” (GLUETACS THERAPEUTICS (SHANGHAI) CO., LTD., priority 2023, published 2026).
